Legend:
[1] = system: Tyrosine-protein kinase ABL1 (Homo sapiens), P00519 [T315I]; details: Compound concentration 1000.0 nM
[2] = target: Tyrosine-protein kinase Blk (Homo sapiens) (UniProt P51451); details: Compound concentration 1000.0 nM
[3] = target: Calcium/calmodulin-dependent protein kinase type 1D (Homo sapiens) (UniProt Q8IU85); details: Compound concentration 1000.0 nM
[4] = target: Cyclin-dependent kinase-like 5 (Homo sapiens) (UniProt O76039); details: Compound concentration 1000.0 nM
[5] = target: Serine/threonine-protein kinase DCLK2 (Homo sapiens) (UniProt Q8N568); details: Compound concentration 1000.0 nM
[6] = target: Interleukin-1 receptor-associated kinase 3 (Homo sapiens) (UniProt Q9Y616); details: Compound concentration 1000.0 nM
[7] = system: Mast/stem cell growth factor receptor Kit (Homo sapiens), P10721 [V559D,V654A]; details: Compound concentration 1000.0 nM
[8] = target: Tyrosine-protein kinase Lck (Homo sapiens) (UniProt P06239); details: Compound concentration 1000.0 nM
[9] = target: Mitogen-activated protein kinase kinase kinase kinase 5 (Homo sapiens) (UniProt Q9Y4K4); details: Compound concentration 1000.0 nM
[10] = target: MAP kinase-activated protein kinase 2 (Homo sapiens) (UniProt P49137); details: Compound concentration 1000.0 nM
[11] = target: Serine/threonine-protein kinase MRCK beta (Homo sapiens) (UniProt Q9Y5S2); details: Compound concentration 1000.0 nM
[12] = target: T1, Serine/threonine-protein kinase Nek2 (Homo sapiens) (UniProt P51955); details: Compound concentration 1000.0 nM
T1 sequence (whole entry): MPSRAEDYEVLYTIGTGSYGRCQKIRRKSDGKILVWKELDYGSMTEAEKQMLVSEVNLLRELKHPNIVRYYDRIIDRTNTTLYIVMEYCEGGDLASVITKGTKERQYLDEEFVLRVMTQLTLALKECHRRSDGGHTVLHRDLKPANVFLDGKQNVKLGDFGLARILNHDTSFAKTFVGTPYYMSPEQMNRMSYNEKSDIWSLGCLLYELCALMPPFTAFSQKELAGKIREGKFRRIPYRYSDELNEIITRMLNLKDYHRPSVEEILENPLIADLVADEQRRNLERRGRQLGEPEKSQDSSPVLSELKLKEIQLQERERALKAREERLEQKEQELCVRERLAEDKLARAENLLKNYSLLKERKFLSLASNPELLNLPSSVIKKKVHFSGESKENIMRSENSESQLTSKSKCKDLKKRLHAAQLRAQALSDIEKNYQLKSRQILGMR

[13] = target: Serine/threonine-protein kinase N2 (Homo sapiens) (UniProt Q16513); details: Compound concentration 1000.0 nM
[14] = target: Serine/threonine-protein kinase PLK4 (Homo sapiens) (UniProt O00444); details: Compound concentration 1000.0 nM
[15] = target: T2, Serine/threonine-protein kinase D2 (Homo sapiens) (UniProt Q9BZL6); details: Compound concentration 1000.0 nM
T2 sequence (whole entry): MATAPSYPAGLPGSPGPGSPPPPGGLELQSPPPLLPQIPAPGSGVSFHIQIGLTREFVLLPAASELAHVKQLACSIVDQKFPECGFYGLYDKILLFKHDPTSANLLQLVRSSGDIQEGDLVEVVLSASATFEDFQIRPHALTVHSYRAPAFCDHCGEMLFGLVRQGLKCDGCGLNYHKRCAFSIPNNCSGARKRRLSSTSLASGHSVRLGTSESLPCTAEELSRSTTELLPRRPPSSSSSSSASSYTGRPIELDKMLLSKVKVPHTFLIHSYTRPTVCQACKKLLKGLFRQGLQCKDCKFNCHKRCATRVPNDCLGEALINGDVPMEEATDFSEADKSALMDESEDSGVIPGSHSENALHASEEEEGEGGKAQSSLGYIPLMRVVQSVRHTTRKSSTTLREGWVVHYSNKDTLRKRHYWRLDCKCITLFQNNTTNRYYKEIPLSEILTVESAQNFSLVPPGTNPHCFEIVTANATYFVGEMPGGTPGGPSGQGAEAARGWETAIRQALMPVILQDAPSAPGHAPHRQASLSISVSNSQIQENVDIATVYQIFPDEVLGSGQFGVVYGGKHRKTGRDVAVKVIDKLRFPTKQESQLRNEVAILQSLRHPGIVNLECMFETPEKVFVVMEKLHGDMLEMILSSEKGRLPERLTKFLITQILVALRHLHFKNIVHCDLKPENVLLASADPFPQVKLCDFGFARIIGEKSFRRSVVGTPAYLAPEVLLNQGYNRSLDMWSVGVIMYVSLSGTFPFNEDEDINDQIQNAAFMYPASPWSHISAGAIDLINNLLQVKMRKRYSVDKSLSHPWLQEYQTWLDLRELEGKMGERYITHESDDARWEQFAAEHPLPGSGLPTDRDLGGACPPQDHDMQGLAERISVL

[16] = target: Uncharacterized serine/threonine-protein kinase SBK3 (Homo sapiens) (UniProt P0C264); details: Compound concentration 1000.0 nM
[17] = target: D(4) dopamine receptor (Homo sapiens) (UniProt P21917); details: Compound concentration 10.0 uM
[18] = target: Sigma non-opioid intracellular receptor 1 (Homo sapiens) (UniProt Q99720); details: Compound concentration 10.0 uM
Sigma non-opioid intracellular receptor 1 (Homo sapiens), sequence (Q99720 whole entry): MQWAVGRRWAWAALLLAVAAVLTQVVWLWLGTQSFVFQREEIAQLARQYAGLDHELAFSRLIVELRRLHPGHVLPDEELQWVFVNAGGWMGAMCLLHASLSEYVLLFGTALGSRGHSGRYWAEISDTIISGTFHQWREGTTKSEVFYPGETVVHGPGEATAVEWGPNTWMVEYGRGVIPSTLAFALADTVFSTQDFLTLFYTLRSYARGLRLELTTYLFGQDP

Calcium/calmodulin-dependent protein kinase type 1D (Homo sapiens), sequence (Q8IU85 whole entry, looked up): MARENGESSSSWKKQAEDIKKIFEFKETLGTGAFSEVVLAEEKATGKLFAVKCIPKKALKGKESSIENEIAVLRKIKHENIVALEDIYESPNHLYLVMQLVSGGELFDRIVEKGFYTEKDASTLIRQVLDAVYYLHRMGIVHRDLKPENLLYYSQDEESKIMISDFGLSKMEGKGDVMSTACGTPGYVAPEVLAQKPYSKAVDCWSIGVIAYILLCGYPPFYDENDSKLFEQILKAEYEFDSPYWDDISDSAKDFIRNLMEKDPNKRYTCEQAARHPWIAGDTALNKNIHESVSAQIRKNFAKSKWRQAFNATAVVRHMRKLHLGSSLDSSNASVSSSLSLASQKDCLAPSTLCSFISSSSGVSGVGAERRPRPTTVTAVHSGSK
Serine/threonine-protein kinase PLK4 (Homo sapiens), sequence (O00444 whole entry): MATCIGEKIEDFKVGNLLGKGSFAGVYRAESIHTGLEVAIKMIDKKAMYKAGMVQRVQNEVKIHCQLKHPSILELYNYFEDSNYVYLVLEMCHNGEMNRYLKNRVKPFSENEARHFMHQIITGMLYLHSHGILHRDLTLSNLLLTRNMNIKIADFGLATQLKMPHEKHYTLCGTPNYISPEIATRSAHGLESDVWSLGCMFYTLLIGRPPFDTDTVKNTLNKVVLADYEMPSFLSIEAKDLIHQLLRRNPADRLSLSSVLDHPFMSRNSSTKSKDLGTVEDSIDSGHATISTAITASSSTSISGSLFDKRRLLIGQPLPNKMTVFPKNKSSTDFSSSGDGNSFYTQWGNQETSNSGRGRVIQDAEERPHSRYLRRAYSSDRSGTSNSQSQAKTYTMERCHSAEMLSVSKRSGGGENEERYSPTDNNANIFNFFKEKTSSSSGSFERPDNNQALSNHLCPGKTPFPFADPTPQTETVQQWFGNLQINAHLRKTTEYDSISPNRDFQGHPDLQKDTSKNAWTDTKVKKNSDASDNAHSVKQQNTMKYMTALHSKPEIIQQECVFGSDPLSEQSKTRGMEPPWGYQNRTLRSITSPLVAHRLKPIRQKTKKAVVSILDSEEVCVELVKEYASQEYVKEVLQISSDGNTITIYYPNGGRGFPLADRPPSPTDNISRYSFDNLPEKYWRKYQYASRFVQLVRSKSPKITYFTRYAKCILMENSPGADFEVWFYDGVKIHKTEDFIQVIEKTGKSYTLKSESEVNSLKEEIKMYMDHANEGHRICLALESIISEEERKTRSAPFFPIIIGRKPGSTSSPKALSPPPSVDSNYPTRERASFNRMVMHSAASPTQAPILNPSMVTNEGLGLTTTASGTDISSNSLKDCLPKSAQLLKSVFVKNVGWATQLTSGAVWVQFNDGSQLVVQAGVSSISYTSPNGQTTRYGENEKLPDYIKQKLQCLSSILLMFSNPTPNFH
Interleukin-1 receptor-associated kinase 3 (Homo sapiens), sequence (Q9Y616 whole entry): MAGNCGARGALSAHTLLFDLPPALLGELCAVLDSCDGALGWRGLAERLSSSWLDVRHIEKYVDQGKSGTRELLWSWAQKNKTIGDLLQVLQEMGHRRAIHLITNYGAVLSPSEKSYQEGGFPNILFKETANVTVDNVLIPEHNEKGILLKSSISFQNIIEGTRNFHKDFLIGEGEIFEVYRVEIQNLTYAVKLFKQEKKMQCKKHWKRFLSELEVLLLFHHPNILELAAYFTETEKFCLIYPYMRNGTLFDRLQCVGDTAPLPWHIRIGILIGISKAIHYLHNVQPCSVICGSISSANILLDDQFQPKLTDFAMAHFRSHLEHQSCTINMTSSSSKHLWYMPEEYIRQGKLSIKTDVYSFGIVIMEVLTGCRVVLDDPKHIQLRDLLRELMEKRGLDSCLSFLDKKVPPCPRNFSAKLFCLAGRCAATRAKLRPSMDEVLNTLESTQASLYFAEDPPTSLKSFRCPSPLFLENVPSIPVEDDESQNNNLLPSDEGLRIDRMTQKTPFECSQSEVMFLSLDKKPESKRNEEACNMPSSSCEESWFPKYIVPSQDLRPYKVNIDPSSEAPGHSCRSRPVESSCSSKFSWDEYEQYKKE
Mitogen-activated protein kinase kinase kinase kinase 5 (Homo sapiens), sequence (Q9Y4K4 whole entry, looked up): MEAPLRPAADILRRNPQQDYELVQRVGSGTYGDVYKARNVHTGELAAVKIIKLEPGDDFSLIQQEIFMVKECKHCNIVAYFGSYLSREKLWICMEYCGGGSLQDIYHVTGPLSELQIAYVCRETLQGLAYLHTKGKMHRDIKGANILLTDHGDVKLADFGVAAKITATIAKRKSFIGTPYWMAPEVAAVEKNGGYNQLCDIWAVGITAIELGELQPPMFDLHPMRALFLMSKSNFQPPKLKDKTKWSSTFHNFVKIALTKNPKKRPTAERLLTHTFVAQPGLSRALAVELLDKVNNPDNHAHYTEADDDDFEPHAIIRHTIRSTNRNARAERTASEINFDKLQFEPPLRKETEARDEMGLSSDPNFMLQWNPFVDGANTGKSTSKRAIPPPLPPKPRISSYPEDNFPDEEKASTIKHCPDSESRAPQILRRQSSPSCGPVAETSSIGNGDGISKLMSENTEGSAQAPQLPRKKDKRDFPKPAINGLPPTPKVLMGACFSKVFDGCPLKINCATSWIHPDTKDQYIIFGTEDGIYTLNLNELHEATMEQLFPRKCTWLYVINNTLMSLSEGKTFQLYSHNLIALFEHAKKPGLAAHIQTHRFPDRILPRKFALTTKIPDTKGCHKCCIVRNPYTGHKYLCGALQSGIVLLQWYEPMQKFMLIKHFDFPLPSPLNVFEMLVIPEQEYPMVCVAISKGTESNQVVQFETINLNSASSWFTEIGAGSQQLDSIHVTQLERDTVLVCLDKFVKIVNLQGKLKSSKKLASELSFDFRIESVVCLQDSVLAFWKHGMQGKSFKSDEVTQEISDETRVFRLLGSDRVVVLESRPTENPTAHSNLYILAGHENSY
Cyclin-dependent kinase-like 5 (Homo sapiens), sequence (O76039 whole entry): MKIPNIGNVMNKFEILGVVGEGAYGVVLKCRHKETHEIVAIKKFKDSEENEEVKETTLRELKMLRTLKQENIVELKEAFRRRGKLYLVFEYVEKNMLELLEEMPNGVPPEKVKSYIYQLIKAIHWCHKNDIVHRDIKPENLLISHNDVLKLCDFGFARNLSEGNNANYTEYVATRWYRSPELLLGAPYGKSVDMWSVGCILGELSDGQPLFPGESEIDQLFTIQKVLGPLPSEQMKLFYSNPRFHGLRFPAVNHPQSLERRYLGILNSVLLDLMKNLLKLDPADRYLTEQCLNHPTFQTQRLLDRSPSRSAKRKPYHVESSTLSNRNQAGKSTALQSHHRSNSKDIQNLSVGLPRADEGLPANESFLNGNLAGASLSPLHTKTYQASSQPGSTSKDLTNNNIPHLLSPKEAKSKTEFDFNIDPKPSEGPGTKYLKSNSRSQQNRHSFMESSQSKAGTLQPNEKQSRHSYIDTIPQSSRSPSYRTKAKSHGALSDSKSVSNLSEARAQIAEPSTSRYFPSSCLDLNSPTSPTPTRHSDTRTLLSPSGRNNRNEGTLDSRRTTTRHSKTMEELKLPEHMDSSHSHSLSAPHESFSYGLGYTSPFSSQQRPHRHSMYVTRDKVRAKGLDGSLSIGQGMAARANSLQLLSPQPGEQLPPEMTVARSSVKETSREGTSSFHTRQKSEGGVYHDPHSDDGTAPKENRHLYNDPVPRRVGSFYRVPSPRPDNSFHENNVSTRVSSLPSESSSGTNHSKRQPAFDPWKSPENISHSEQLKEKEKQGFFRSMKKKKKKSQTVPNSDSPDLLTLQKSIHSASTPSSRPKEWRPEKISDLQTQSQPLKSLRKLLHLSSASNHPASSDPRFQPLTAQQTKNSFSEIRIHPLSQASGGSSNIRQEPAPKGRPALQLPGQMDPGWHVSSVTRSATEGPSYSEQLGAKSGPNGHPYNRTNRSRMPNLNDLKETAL
Tyrosine-protein kinase Lck (Homo sapiens), sequence (P06239 2-509 limits assumed): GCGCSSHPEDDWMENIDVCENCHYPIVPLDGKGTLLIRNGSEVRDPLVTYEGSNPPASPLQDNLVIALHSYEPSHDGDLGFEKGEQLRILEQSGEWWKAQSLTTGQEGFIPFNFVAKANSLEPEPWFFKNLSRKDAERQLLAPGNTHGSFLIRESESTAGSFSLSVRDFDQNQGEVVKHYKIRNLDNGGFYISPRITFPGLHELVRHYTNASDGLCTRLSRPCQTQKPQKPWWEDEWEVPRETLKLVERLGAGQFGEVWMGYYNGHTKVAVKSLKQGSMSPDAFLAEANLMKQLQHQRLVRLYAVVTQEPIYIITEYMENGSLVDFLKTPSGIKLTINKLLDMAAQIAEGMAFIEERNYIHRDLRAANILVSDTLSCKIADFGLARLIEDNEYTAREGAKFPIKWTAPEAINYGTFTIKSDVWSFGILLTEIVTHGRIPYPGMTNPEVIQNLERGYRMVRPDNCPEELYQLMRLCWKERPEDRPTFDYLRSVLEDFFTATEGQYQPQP
MAP kinase-activated protein kinase 2 (Homo sapiens), sequence (P49137 whole entry, looked up): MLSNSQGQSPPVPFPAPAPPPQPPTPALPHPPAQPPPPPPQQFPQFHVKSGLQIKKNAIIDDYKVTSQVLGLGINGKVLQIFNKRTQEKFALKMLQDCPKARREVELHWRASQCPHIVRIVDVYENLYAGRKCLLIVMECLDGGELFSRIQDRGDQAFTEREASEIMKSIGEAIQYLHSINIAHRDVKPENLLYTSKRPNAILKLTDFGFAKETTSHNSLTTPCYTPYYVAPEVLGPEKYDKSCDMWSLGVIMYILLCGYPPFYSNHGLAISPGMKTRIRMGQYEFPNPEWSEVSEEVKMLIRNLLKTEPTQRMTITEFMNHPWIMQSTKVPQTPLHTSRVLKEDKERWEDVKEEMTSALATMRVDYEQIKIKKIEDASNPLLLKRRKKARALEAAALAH

CC1=C(C#N)C(c2ccc3c(c2)c(NC(=O)c2ccccc2C)nn3C)C(C#N)=C(C)N1 [BAY-974]
inactive: residual activity [1] 97% | residual activity [2] 82% | residual activity [3] 93% | residual activity [4] 79% | residual activity [5] 100% | residual activity [6] 79% | residual activity [7] 99% | residual activity [8] 81% | residual activity [9] 100% | residual activity [10] 84% | residual activity [11] 100% | residual activity [12] 100% | residual activity [13] 100% | residual activity [14] 100% | residual activity [15] 95% | residual activity [16] 100% | inhibition [17] 0.21% | inhibition [18] 37.9%

CCc1ccccc1C(=O)Nc1n[nH]c2c(C)c(F)c(C3C(C#N)=C(C)N(C)C(C)=C3C#N)cc12 [BAY-3827]
inactive: residual activity [1] 72% | residual activity [2] 100% | residual activity [3] 87% | residual activity [4] 100% | residual activity [5] 64% | residual activity [6] 98% | residual activity [7] 100% | residual activity [8] 100% | residual activity [9] 100% | residual activity [10] 100% | residual activity [11] 100% | residual activity [12] 87% | residual activity [13] 100% | residual activity [14] 100% | residual activity [15] 87% | residual activity [16] 73% | inhibition [17] -0.18% | inhibition [18] 30.5%
